{"source": "paper PMC3102498", "about": "(Journal of neuro-oncology, 2010)", "key": {"[1]": {"settings": "cited from earlier work"}, "[2]": {"assay": "Sorafenib plasma pharmacokinetics", "assay_type": "in vivo, human", "settings": "for sorafenib exposure (AUC0–24) on day 28, patients on vs not on EIAEDs: day 28 of cycle 1, P = 0.0431; for AUC(0-t): AUC0–8 (mean)"}, "[3]": {"assay": "Phase 2 trial toxicity graded according to NCI CTC version 2"}, "[4]": {"assay": "Temozolomide exposure, continuous daily dosing compared to standard 5-day dosing", "assay_type": "in vivo, human", "settings": "50 mg/m2/day continuous compared to 150–200 mg/m2/day for 5 days each month"}}}
{"smiles": "CNC(=O)c1cc(Oc2ccc(NC(=O)Nc3ccc(Cl)c(C(F)(F)F)c3)cc2)ccn1", "note": "[Sorafenib]", "values": [{"measurement": "reduction in sorafenib exposure", "setting": "[1]; co-administration of rifampin, a CYP3A4 and UGT 1A9 inducer", "result": 37, "unit": "%"}, {"measurement": "effect of ketoconazole co-administration on sorafenib", "setting": "[1]; ketoconazole (CYP3A inhibitor) with low-dose sorafenib 50 mg/day", "result": "did not result in unexpected adverse events or evidence of altered sorafenib pharmacokinetics"}, {"measurement": "sorafenib exposures, patients on vs not on EIAEDs", "setting": "[1]; phase I dose escalation study, malignant glioma patients, day one of cycle one", "result": "comparable"}, {"measurement": "increase of sorafenib exposures over seven days (to steady-state)", "setting": "[1]; prior pharmacokinetic studies", "result": "3–4 fold"}, {"measurement": "sorafenib exposure on day 1, patients on vs not on EIAEDs", "setting": "[2]; day 1 of cycle 1", "result": "comparable"}, {"measurement": "sorafenib exposure (AUC0–24) on day 28, patients on vs not on EIAEDs", "setting": "[2]", "result": "significantly lower on day 28 for patients on EIAEDs"}, {"measurement": "sorafenib exposure (AUC0–24) on day 28, patients on vs not on EIAEDs", "setting": "[2]; listed as sorafenib", "result": "significantly higher on day 28 for patients not on EIAEDs"}, {"measurement": "AUC(0-t)", "setting": "[2]; human, plasma, oral, 400 mg, patients not on EIAEDs, day 1, n = 5 per group", "result": 11100, "unit": "ng·h/mL"}, {"measurement": "AUC(0-t)", "setting": "[2]; human, plasma, oral, 400 mg, patients not on EIAEDs, day 28, n = 5 per group", "result": 52100, "unit": "ng·h/mL"}, {"measurement": "AUC", "setting": "[2]; human, plasma, oral, 400 mg, AUC(24) (mean), Non-EIAED patients, day 28 of cycle 1, plasma", "result": 129000, "unit": "ng·h/mL"}, {"measurement": "Cmax", "setting": "[2]; human, plasma, oral, 400 mg, C max (mean), Non-EIAED patients, day 28 of cycle 1, plasma", "result": 8120, "unit": "ng/mL"}, {"measurement": "difference in mean AUC0–8, day 28 vs day 1", "setting": "[2]; patients not on EIAEDs", "result": "~5", "unit": "fold"}, {"measurement": "sorafenib AUC0–24 day 28 compared to day 1", "setting": "[2]; patients not on EIAEDs, P = 0.0117", "result": "significantly higher"}, {"measurement": "sorafenib AUC0–24 day 28 compared to day 1", "setting": "[2]; patients on EIAEDs, P = 0.7266", "result": "did not differ significantly"}, {"measurement": "Amylase/lipase, dose modification or discontinuation of sorafenib", "setting": "[3]; n = 32", "result": "4 (13) number of patients (percent of"}, {"measurement": "Palmer-Plantar Erythrodysesthesia, dose modification or discontinuation of sorafenib", "setting": "[3]; n = 32", "result": "3 (9) number of patients (percent of"}]}
{"smiles": "Cn1nnc2c(C(N)=O)ncn2c1=O", "note": "[temozolomide, Temozolomide]", "values": [{"measurement": "greater temozolomide exposure with continuous daily dosing", "setting": "[4]", "result": "1.4–1.9 fold"}, {"measurement": "patients requiring dose modification or discontinuation of daily temozolomide", "setting": "[3]; 32 patients", "result": "none of the patients"}]}
